{
  "source": "patent US10172911B2",
  "about": "“Methods of modulating erythropoiesis with arginine vasopressin receptor 1B molecules” (The United States of America, as represented by the …, priority 2013, dated 2019)",
  "key": {"[1]": {"system": "human CD34+ hematopoietic progenitors", "assay": "Intracellular Ca2+ measurement in Fura-2 loaded human CD34+ hematopoietic progenitors", "assay_type": "cell-based", "settings": "human CD34+ cells, agonist stimulation", "experimental": "Human BMSCs were loaded with Fura-2 and the cells were stimulated with AVP, or OXT. Intracellular Ca^2+ concentration was assayed as described before (Ely, J. A. et al. J Biol Chem 266, 18635-18641 (1991). To study their response to AVP and specific AVP receptor agonists and antagonists human CD34+ hematopoietic progenitors were Fura-2 loaded and Cytoplasmic Ca2+ measurements were performed in cells kept in suspension using a fluorescence spectrophotometer (Deltascan, Photon Technology International). Ratiometric measurements were recorded at 340/380 nm excitation and 500 nm emission and the ratios were plotted against time. Ionomycin (10 μM) was added at the end of each run to determine the maximum fluorescence ratio."}, "[2]": {"system": "CD34^+ cells from healthy donors", "assay": "CFU assay (E-CFU, GM-CFU) of human CD34+ cells in Methocult", "assay_type": "cell-based", "settings": "per 1000 plated CD34+ cells; 10^−8 M", "experimental": "CD34^+ cells from healthy donors were plated into semi-solid methylcellulose medium (Methocult) containing hematopoietic factors (GM-CSF 5 ng/ml, IL-3 5 ng/ml, SCF 50 ng/ml, EPO 2.5 U/ml).\nThe number of erythroid colony forming units (E-CFU) and granulocyte-macrophage colony forming units (GM-CFU) were determined based on morphological criteria on 7th and 14th days in culture."}, "Wnt pathway": {"system": "Wnt pathway", "assay": "Q-PCR and microarray of Wnt pathway genes in AVP-stimulated CD34+ cells", "assay_type": "cell-based, human", "description": "FIGS. 3A-3D show studies of signaling pathways. FIG. 3A provides results from CFU assays showing E-CFU and GM-CFU numbers/1000 plated cells. […] Error bars represent means±SD * p<0.05, ** p<0.01, unpaired t-test. […] The cells were then fixed with 4% paraformaldehyde and washed before immunostaining. Following permeabilization with Triton-X 100 a primary antibody to β-catenin was applied followed by a fluorescent secondary antibody. The β-catenin translocated to the nucleus at the 10^−10 AVP concentration confirming the activation of the Wnt pathway. Scale: 10 μm. […] Using Q-PCR to detect changes in genes that reflect Wnt pathway activation, increases in CCND1, MYC and LEF1 in response to AVP stimulation were observed.\nThe resultant cDNA was amplified with QuantiTect SYBR Green RT-PCR kit (Qiagen) or with SYBR Green Supermix (Bio-Rad, Hercules, Calif.). For qPCR, cDNA (2 μls of cDNA for AVP expression and […] for OXT or beta-actin expression) was amplified with QuantiTect SYBR Green RT-PCR kit and the expression data were normalized to human beta-actin expression."}, "[3]": {"system": "CD34^+ human hematopoietic progenitor cells", "assay": "cAMP measurement in CD34+ human hematopoietic progenitor cells", "assay_type": "cell-based", "settings": "AVP 10^−10 M vs non-stimulated cells", "description": "For cAMP measurements in CD34^+ human hematopoietic progenitor cells derived from two donors. The cAMP femto 2 kit (Cat#62AM5PEB, Cisbio) was used according to manufacturers instructions. The measurements were done on a Wallac Victor2 1420 multilabel counter (Perkin Elmer)."}, "mice [4]": {"system": "mice", "assay": "Phenylhydrazine (hemolytic) anemia model", "assay_type": "in vivo, mouse", "settings": "day 2 and day 4", "experimental": "Phenylhydrazine, a known hemolytic agent, was injected intraperitoneally by administration of phenylhydrazine hydrochloride ip. 50 mg/kg body wt. (injection volume range of 100-150 μls) on day 0 and 1 and then mice were implanted with ALZET micro-osmotic pumps as described above to deliver AVP or vehicle. Blood samples were taken at 2, 4 and in some cases 6 and 14 days later to determine hematocrit and corrected reticulocyte values."}, "mice [5]": {"system": "mice", "assay": "Peripheral blood values following EPO vs. AVP injections in hemorrhage", "assay_type": "in vivo, mouse", "experimental": "AVP (100 μg/kg bodyweight) or EPOetin alfa (50 U/bodyweight, EPOgen) was administered intra-peritoneally to mice, immediately following hemorrhage. […] Hematocrit and reticulocyte counts were measured at different time points."}, "mice [6]": {"system": "mice", "assay": "EPO neutralization study in hemorrhage", "assay_type": "in vivo, mouse", "experimental": "To infuse vasopressin into the mice, AVP filled ALZET pumps were implanted subcutaneously on the dorsal aspect of the neck (5 ug/day, Alzet 1007D—7 days, 2002-14 days). Vasopressin was also given immediately and 6 hours later as a bolus injection (100 μg/kg). Alzet pumps were inserted subcutaneously. The dimensions and pump specification are: ALZET, (DURECT Corporation, Cupertino, Calif., USA) mini-osmotic pump models 1007D or 2002. The pumps deliver 0.5 μl/h of the desired substance for a for 2-week period. In some cases, erythropoietin antibody (100 μg/mice) was given before anesthesia with the corresponding control antibody. […] Following the initial hemorrhage blood samples were taken at 2, 4 and in some cases 6 days later to determine hematocrit and corrected reticulocyte values.\nIn some cases Erythropoietin antibody (100 μg/mice) was given before anesthesia with the corresponding control antibody."}, "Human BMSCs": {"system": "Human BMSCs", "assay": "BMSC signalling (ERK phosphorylation, cAMP, intracellular Ca2+)", "assay_type": "cell-based", "settings": "BMSC cultures", "quoted_text": "For cAMP quantitation, 8×10^5 per well human BMSCs were plated in 6 well plates and left to attach overnight. Next day, the medium was changed and the cells were stimulated with AVP or deamino-Cys^1, D-Arg^8 AVP (DDAVP, a V2 receptor agonist) at 10^−6 M for 4 minutes. Cells were washed with PBS and lysed with R&D cell lysis buffer. Cyclic AMP was measured with the R&D cAMP Parameter assay kit (R&D Systems, Minneapolis, Minn.) according to manufacturer's instructions. Total protein concentrations of the cell lysates were measured using the Micro BCA Protein Assay kit (Pierce, Rockford, Ill.) and cAMP amount was normalized to 100 μg of total protein."}, "human CD34^+ cells": {"system": "human CD34^+ cells", "assay": "Brattleboro/LE rat BMSC and human CD34+ progenitor co-culture, BrdU", "assay_type": "cell-based", "settings": "AVP 10^−13 M", "experimental": "Rat BMSCs were isolated and cultured from the bone marrow of 5-6 weeks old male Brattleboro (animals that lack the ability to produce vasopressin) and Long-Evans rats (control strain for the Brattleboro rats) as described before. For flow cytometry studies, 100000 rat BMSCs per well were plated in αMEM medium (20% FBS) in 12 well plates in quadruplicates and incubated overnight. Next day, medium was removed and 200000 human CD34 cells per well were added in Stemspan medium with factors (human SCF, TPO, FLT3L and G-CSF 100 ng/ml). Co-culture was stimulated with AVP or left unstimulated (PBS) and next day BrdU was added. After 24 hours the cells were trypsinized, brought up in αMEM (20% FBS), resuspended and strained through 70 μm cell strainer. For normalization, Sigma beads were added to each sample tube. Cells were washed with FACS buffer and stained for human CD34 and CD38. The subsequent steps were done according to the BD BrdU Flow kit protocol. At flow cytometry measurements, cell numbers were normalized to Sigma bead numbers."}, "WT mice": {"system": "WT mice", "assay": "AVP infusion in unmanipulated WT mice", "assay_type": "in vivo, mouse", "settings": "infused over a 3 week period"}, "[7]": {"settings": "AVP stimulated CD34+ cells vs control cells"}},
  "note": "Entries after “also recorded” stand apart in the source; their conditions may differ.",
  "data": [
    {"compound": "NC(=O)CC[C@@H]1NC(=O)[C@H](Cc2ccccc2)NC(=O)[C@H](Cc2ccc(O)cc2)NC(=O)[C@@H](N)CSSC[C@@H](C(=O)N2CCC[C@H]2C(=O)N[C@@H](CCCN=C(N)N)C(=O)NCC(N)=O)NC(=O)[C@H](CC(N)=O)NC1=O", "note": "[AVP, [Arg8]-Vasopressin]", "values": [
      {"measurement": "intracellular calcium levels", "setting": "[1]", "result": "increases in their intracellular calcium levels; also recorded: increase in intracellular calcium; also recorded: increased intra-cellular Ca^2+ concentrations"},
      {"measurement": "erythroid-colony forming unit (E-CFU) numbers", "setting": "[2]", "result": "significantly increased; also recorded: increased erythroid colony formation"},
      {"measurement": "granulocyte macrophage-colony forming unit (GM-CFU) numbers", "setting": "[2]", "result": "increased both E-CFU and GM-CFU in another"},
      {"measurement": "LEF1 RNA", "setting": "Wnt pathway; [7]", "result": "an increase (statistically not significant)"},
      {"measurement": "MYC RNA", "setting": "Wnt pathway; [7]", "result": "significantly more"},
      {"measurement": "cyclin D1 (CCND1) RNA", "setting": "Wnt pathway; [7]", "result": "significantly more"},
      {"measurement": "difference in Wnt pathway genes (CDON, DKK1, DPP10, FZD7 up; CDKN2A, FST, KLF5 down)", "setting": "Wnt pathway; single microarray study", "result": "over two-fold difference"},
      {"measurement": "cAMP in human CD34+ progenitors", "setting": "[3]", "result": "moderate increase in cAMP"},
      {"measurement": "outcome measures (hematocrit, corrected reticulocytes)", "setting": "mice [4]", "result": "significantly improved outcome measures on day 2 and to some extent on day 4"},
      {"measurement": "increase in hematocrit compared to PBS", "setting": "mice [5]; AVP 100 μg/kg i.p. just after hemorrhage", "result": "only statistically significant at 12 and 24 hours; also recorded: significant increase in hematocrit 12 hours following the insult"},
      {"measurement": "differences in hematocrit between EPO and AVP", "setting": "mice [5]; after hemorrhage", "result": "significant at 6, 12 and 24 hours and disappeared 5 days after hemorrhage"},
      {"measurement": "CR numbers", "setting": "mice [6]; EPO neutralized group, day 6", "result": "began to increase CR numbers"},
      {"measurement": "CR values over PBS", "setting": "mice [6]; EPO neutralized, day 4", "result": "eliminated this difference"},
      {"measurement": "hematocrit values", "setting": "mice [6]; after EPO neutralization, hemorrhage", "result": "significantly increased hematocrit values"},
      {"measurement": "CR values over PBS", "setting": "mice [6]; control mice, day 4 and 6", "result": "increased the CR values over PBS"},
      {"measurement": "corrected reticulocyte (CR) values, EPO neutralized or control groups, AVP or PBS", "setting": "mice [6]; day 2", "result": "no significant difference"},
      {"measurement": "ERK phosphorylation", "setting": "Human BMSCs", "result": "induced ERK phosphorylation"},
      {"measurement": "cyclic AMP", "setting": "Human BMSCs; 10^−6 M for 4 minutes", "result": "increase in cyclic AMP"},
      {"measurement": "proliferation of CD34+ cells", "setting": "human CD34^+ cells; Brattleboro-derived BMSCs", "result": "failed to induce proliferation"},
      {"measurement": "proliferation of CD34+ cells", "setting": "human CD34^+ cells; LE BMSCs", "result": "did cause CD34^+ cells to proliferate"},
      {"measurement": "RBC numbers", "setting": "WT mice", "result": "gradually increased RBC numbers"}
    ]}
  ]
}
